Assay [1] relates to aortic endothelium of diabetic mice. In words: Hyperglycemia-induced endothelial apoptosis in aortic endothelium of diabetic mice (TUNEL). In kind it is in vivo, C57BL/6 mice. As to conditions: midazolam 10 mg/kg intraperitoneal daily for 14 days (FIG. 19). Here is the method:
FIGS. 19A and 19B show the preventive effects of midazolam against hyperglycemia-induced endothelial apoptosis in the aortic endothelium of diabetic mice. Six-week-old male C57BL/6 mice were administered with streptozotocin (150 mg/kg body weight) to give diabetic mouse models. One week after streptozotocin injection, diabetic mice were administered midazolam (10 mg/kg) by intraperitoneal injection daily for 14 days. The body weight of mice were measure in normal (20.7±0.1 g), diabetic (17.1±0.1 g), and midazolam supplemented diabetic mice (17.0±0.3 g). Blood glucose levels were also monitored in normal (124.0±12.0 mg/dL), diabetic (509.0±1.0 mg/dL), and midazolam supplemented diabetic mice (515.7±3.4 mg/dL). Aorta of mice were dissected and cut longitudinally to expose the endothelium. And then aortic segments were fixed for 15 min with 1% (w/v) paraformaldehyde in PBS, followed by treatment for 30 min with 70% (v/v) ethanol on ice. Apoptotic cells were stained by terminal deoxynucleotidyl transferase dUTP nick end labeling (TUNEL) with nuclear counterstaining with DAPI and visualized by confocal microscopy in the aortic endothelium. […] The results of endothelial apoptosis quantitatively analyzed by measurement of TUNEL staining in the aorta are shown in additional FIG. 19B (n=4 for normal and diabetic, n=6 for diabetic+Midazolam).

Assay [2] relates to human retinal endothelial cells (HRECs). In words: Analysis of intracellular Ca^2+ (Fluo4-AM, confocal microscopy). The format is cell-based. Here is the method:
(§1) Purchased from Applied Cell Biology Research Institute (Cell Systems, Kirkland, Wash.), human retinal endothelial cells (HRECs) were cultured in an M19 medium, containing 20% FBS, 3 ng/mL bFGF, 5 U/mL heparin, 100 U/mL penicillin and […], in a 2% gelatin-coated plate.
(§2) Before the following Test Examples 2 to 7, the HRECs were cultured for 6 hr in a medium containing 1% FBS and an antibiotic agent, thus preparing HRECs of Test Example 1.
With reference to FIG. 2A, the HRECs of Test Example 1 were subjected to the respective treatments below, stained with 2 μM Fluo4-AM at 37° C. for 30 min and then measured at time intervals of 10 sec using confocal microscopy (FV-300, Olympus, Tokyo, Japan).
With reference to FIG. 2B, the HRECs of Test Example 1 were subjected to the respective treatments below, cultured for 30 min, stained with 2 μM Fluo4-AM at 37° C. for 30 min and then measured at time intervals of 10 sec using confocal microscopy.

Assay [3] relates to retinas of diabetic mice. Put plainly: Analysis of ROS concentration in retinas of diabetic mouse model (DHE). The following applies: intravitreal 2 μL of 2 mM midazolam, 2 μM Trolox or 500 mM NAC (FIGS. 12, 13). The format is in vivo, C57BL/6 mice. Here is the method: 6-week-old male C57BL/6 mice (DBL, EumSeong, Korea) were administered with streptozotocin (Sigma-Aldrich) dissolved in a 100 mM citrate buffer (pH 4.5) through intraperitoneal injection in an amount of 150 mg each per kg of mouse weight to give diabetic mouse models. In the diabetic mouse models, the blood glucose level was 19 mM or more when not fasting, and polyuria and diabetes, considered signs of diabetes, were observed. […]
Normal mice (Normal), midazolam-administered normal mice (Midazolam), diabetic mice (Diabetic), midazolam-administered diabetic mice (Diabetic+Midazolam), Trolox-administered diabetic mice (Diabetic+Trolox) and NAC-administered diabetic mice (Diabetic+NAC) were subjected to cervical dislocation and the eyeballs were extracted therefrom and rapidly frozen with an OCT compound (Sakura Finetek, Torrance, Calif., USA). Using a microtome-cryostat (Leica Biosystems, Wetzlar, Germany), 10 μm-thick non-fixed cryosections were prepared, treated with a solution of 5 μM dihydroethidium (DHE, Invitrogen-Molecular Probes) in PBS, stained for 30 min, and measured using confocal microscopy. The results of ROS concentrations quantitatively analyzed using the fluorescence intensity of the cryosections are shown in FIGS. 12 and 13.

Assay [4] relates to TGase. In words: Analysis of TGase activity of cells (5-(biotinamido)pentylamine incorporation). In kind it is cell-based, human. The following applies: HRECs. Here is the method: as §1, §2
With reference to FIG. 4A, the HRECs of Test Example 1 were treated with 0 to 20 μM midazolam, cultured for 2 hr, treated with 10 ng/mL VEGF, incubated for 2 hr, treated with 1 mM 5-(biotinamido)pentylamine, incubated for 1 hr, fixed with 3.7% formaldehyde, treated with 0.2% triton X-100, treated with a blocking solution containing 138 mM NaCl, 0.1% Tween 20 and 2% BSA dissolved in a 20 mM Tris (pH 7.6) buffer, incubated for 30 min, incubated for 1 hr with FITC-conjugated streptavidin (1:200, v/v), and then measured using confocal microscopy to thus determine the fluorescence intensity of single cells.
With reference to FIG. 4B, the HRECs of Test Example 1 were subjected to the respective treatments below and cultured for 30 min. Here, treatment with 10 ng/mL VEGF was performed for 2 hr. […]

Each structure is given as a SMILES string.

For `Cc1ncc2n1-c1ccc(Cl)cc1C(c1ccccc1F)=NC2` [midazolam], the “hyperglycemia-induced endothelial apoptosis in aorta (TUNEL staining)” value in assay [1] is “inhibited the hyperglycemia-induced apoptosis of diabetic aortas”. Moreover, in assay [2] (10 ng/ml VEGF and 20 μM midazolam together (FIG. 2A)), the “changes in intracellular Ca^2+ (VEGF-induced)” value is on record as “no significant changes in intracellular Ca^2+”. Besides, the “changes in intracellular Ca^2+ (VEGF-induced, after washing)” value in assay [2] (20 μM midazolam 30 min, washing with serum-free medium, then 10 ng/ml VEGF (FIG. 2A)) is “intracellular Ca^2+ elevation was caused”. Further, the “changes in intracellular Ca^2+” value in assay [2] (20 μM midazolam alone (FIG. 2A)) was “no significant changes in intracellular Ca^2+”. Also, the “ROS concentration in retina compared to normal mice” value in assay [3] is given as “an increase in ROS concentration was suppressed”. For the same compound, the “TGase activity, concentration dependence” value in assay [4] (0 to 20 μM midazolam 2 hr, then 10 ng/mL VEGF 2 hr (FIG. 4A)) was “TGase activity was decreased with an increase in the concentration of midazolam”. Moreover, the “TGase activity (VEGF-induced) compared to control” value in assay [4] (10 ng/mL VEGF 2 hr with 20 μM midazolam, 5 μM BAPTA-AM, 1 mM NAC, 0.5 μM Trolox, 50 μM cystamine or 20 μM MDC (FIG. 4B)) is “substantially the same effect of inhibiting TGase activity as the TGase inhibitors cystamine and MDC”.

(Values after US11020405B2, “Method for prevention or treatment of diabetic complications” (KANGWON NATIONAL UNIVERSITY UNIVERSITY-INDUSTRY COOPERATION …, priority 2017, dated 2021).)
